Experimental data as given in US9862684B2, “Modulation of K2P channels” (The Regents of the University of California, priority 2013, dated 2018).

Key:
K2P5.1 (TASK-2) = biological target: T1, K2P5.1 (TASK-2) (Mus musculus, UniProt F6V9U5); experiment: Two-electrode voltage clamp, Xenopus oocytes expressing K2P5.1 (TASK-2); type: cell-based, Murine
T1 construct: expressed in transfected cells; host or cells: Xenopus oocytes
T1 sequence (F6V9U5 1-502): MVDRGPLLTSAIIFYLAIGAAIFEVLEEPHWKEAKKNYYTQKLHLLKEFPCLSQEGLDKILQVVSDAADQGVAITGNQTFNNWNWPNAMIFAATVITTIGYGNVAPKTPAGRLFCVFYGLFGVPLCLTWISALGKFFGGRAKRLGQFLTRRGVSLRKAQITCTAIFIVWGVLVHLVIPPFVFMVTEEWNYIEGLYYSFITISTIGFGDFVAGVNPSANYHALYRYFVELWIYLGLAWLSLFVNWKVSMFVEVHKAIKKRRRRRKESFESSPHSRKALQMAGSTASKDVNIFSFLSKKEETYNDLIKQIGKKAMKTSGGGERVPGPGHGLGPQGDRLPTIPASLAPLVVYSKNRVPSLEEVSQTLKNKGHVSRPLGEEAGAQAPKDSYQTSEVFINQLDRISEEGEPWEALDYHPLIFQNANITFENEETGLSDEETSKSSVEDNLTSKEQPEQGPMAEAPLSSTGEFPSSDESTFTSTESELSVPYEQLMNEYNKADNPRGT
Procedure: FIG. 7 ML67-33 is a selective activator of heat- and mechanosensitive K2P channels. a-f, Exemplar I-V curves showing the effect of ML67-33 on a, K2P10.1 (TREK-2), b, K2P4.1 (TRAAK), c, K2P3.1 (TASK-1), d, K2P9.1 (TASK-3), e, K2P5.1 (TASK-2), and f, K2P18.1 (TRESK) measured in Xenopus oocytes in 2 mM [K^+]o pH 7.4. Currents were elicited by a voltage ramp from −150 to 50 mV, from a holding potential of −80 mV. g, Quantification of the effect of ML67-33 on the indicated channels. Data (mean±s.e., n≧6, N≧2) was normalized to basal channel activity and fitted to the Hill equation. […] Error bars indicate s.e., n≧6, N≧2.
(§1) Murine K2P channels were cloned into pGEMHE/pMO {Bagriantsev, 2011}, IRES-GFP (Invitrogen), or pYES2-MET25 (high copy 2μ, URA3) {Minor, 1999} for expression in oocytes, HEK-293T cells, and yeast, respectively, using standard molecular biology procedures, and verified by DNA sequencing.
Two-electrode voltage clamp recordings were performed from defolliculated stage V-VI Xenopus oocytes 24-48 hours after injection with 0.015-6.0 ng cRNA, using microelectrodes (0.3-3.0 MΩ) filled with 3M KCl. Data was acquired using the GeneClamp 500B (MDS Analytical Technologies) amplifier controlled by the pClamp software (Molecular Devices), and digitized at 1 kHz using Digidata 1332A (MDS Analytical Technologies). […]

K2P2.1 (TREK-1) = biological target: T2, K2P2.1 (TREK-1) (Mus musculus, UniProt P97438); experiment: Whole cell patch clamp of HEK-293T cells expressing K2P2.1 (TREK-1); type: cell-based, Murine
T2 construct: expressed in transfected cells; host or cells: Xenopus oocytes (cRNA injection, pGEMHE/pMO)
T2 sequence (P97438 1-411 isoform P97438-2): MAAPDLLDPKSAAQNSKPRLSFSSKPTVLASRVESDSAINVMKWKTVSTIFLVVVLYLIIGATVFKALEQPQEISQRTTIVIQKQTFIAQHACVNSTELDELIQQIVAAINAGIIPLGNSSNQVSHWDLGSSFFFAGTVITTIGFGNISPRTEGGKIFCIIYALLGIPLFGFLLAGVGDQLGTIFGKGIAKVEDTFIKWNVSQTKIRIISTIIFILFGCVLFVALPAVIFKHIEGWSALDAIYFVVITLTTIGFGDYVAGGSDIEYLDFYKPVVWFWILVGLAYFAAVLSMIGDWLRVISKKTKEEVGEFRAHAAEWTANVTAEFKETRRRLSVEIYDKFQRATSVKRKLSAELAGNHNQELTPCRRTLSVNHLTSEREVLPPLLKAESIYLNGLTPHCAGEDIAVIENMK
Procedure: as §1
(§2) Two-electrode voltage clamp recordings were performed from defolliculated stage V-VI Xenopus oocytes 24-48 hours after injection with 0.015-6.0 ng cRNA, using microelectrodes (0.3-3.0 MΩ) filled with 3M KCl. Data was acquired using the GeneClamp 500B (MDS Analytical Technologies) amplifier controlled by the pClamp software (Molecular Devices), and digitized at 1 kHz using Digidata 1332A (MDS Analytical Technologies). Recording solutions (mM): 2K (96 NaCl, 2 KCl, 1.8 CaCl2, 2 MgCl2), 90K (90 KCl, 8 NaCl, 1.8 CaCl2, 2 MgCl2), were buffered 5 mM HEPES pH 7.4. For K2P recordings, currents we elicited by a 1 second long ramp from −150 to +50 mV from a holding potential of −80 mV (2K), or −100 to +50 mV from a holding potential of 0 mV (90K). For KCNQ2 recordings, currents were elicited by a step protocol from −120 to 60 mV, in 20 mV increments, from a holding potential of −80 mV. Patch-clamp recordings from HEK-293T cells were performed using microelectrodes (2-3 MΩ) filled with 1M KCl. Data was acquired using the Axopatch 200B amplifier controlled by pClamp software, and digitized at 1 kHz using Digidata 1332A. Recording solutions (mM): intracellular (145 KCl, 5 EGTA, 3 MgCl2,) extracellular (150 NaCl, 5 KCl, 3 MgCl2, 1 CaCl2) were buffered with 5 mM HEPES pH 7.2 and 7.4, respectively. Currents were elicited by a 1 second long ramp from −150 to +50 mV from a holding potential of −80 mV. Data were fitted with a modified Hill's equation: I=Imin+(Imax−Imin)/(1+10^((Log EC50−Log [C])*H)), where Imax and Imin are maximal and minimal current values, respectively, EC50 is a half-maximal effective concentration of the compound, and H is the Hill coefficient.

Kv7.2 (KCNQ2) = biological target: T3, Kv7.2 (KCNQ2) (Homo sapiens, UniProt O43526); experiment: Two-electrode voltage clamp, Xenopus oocytes expressing Kv7.2 (KCNQ2); type: cell-based; conditions: ML67-33 at 100 μM; ML67 concentration not stated
T3 construct: expressed in transfected cells; host or cells: Xenopus oocytes
Procedure: FIG. 12 Exemplar I-V curves showing the effect of 100 μM ML67-33 Kv7.2 (KCNQ2) measured by two-electrode voltage clamp in Xenopus oocytes in 2 mM [K^+]o pH 7.4. Currents were elicited by a step protocol from −120 to 60 mV, in 20 mV increments, from a holding potential of −80 mV.
as §2

Compound: CC1(C)c2cc(Cl)ccc2N(CCc2nnn[nH]2)c2ccc(Cl)cc21 [ML67-33, 2,7-dichloro-9,9-dimethyl-10-[2-(1H-tetrazol-5-yl)ethyl]acridine]
- functional effect (in words) (K2P5.1 (TASK-2); applied at 100 μM): little or no functional effects
- Emax (fold) (K2P5.1 (TASK-2); at 100 μM (FIG. 7 legend), ** in Table 1): 1.7±0.3 fold
- Emax (fold) (K2P2.1 (TREK-1); HEK-293T cells, whole cell patch clamp, at 100 μM per FIG. 4 legend): 11.4±1.1 fold
- EC50 (K2P2.1 (TREK-1); HEK-293T cells, whole cell patch clamp, marked * in Table 1): 9.7 ± 1.2 µM
- time of half-maximal activation (t1/2act) (K2P2.1 (TREK-1); whole-cell, HEK-293T, 0 mV): 4.1 ± 0.5 s
- time of return to baseline following washout (t1/2wash) (K2P2.1 (TREK-1); whole-cell, HEK-293T, 0 mV): 3.9 ± 0.5 s
- effect on Kv7.2 (KCNQ2) (in words) (Kv7.2 (KCNQ2)): no effect
